According to patent publication US11026942B2, “Agent for preventing and/or treating Alzheimer's disease” (KYOTO UNIVERSITY, priority 2015, dated 2021):

What was measured:
Type in all cases: cell-based, human
Aβ42/40 ratio = Aβ42/40 ratio in FAD1 iPS cell-derived nerve cells (primary/secondary screening, dose dependency); details: secondary screening
Outline: (§1)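 Cerebral cortex neurons were induced from FAD1 patient iPS cells by doxycycline-inducible NGN2, delivered by PiggyBac. Aβ40 and Aβ42 in the culture medium gave the Aβ42/40 ratio, with dose dependency examined in primary and secondary screens. The secondary screen also covered Aβ38, Aβ43, sAPPα and sAPPβ.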

sAPPβ = sAPPβ in FAD1 iPS cell-derived nerve cells (secondary screening); details: secondary screening, FAD1 iPS cell-derived nerve cells
Method: (§2) To further study reproducibility of the candidate drugs obtained by the primary screening, secondary screening was conducted. In addition to Aβ40, Aβ42, Aβ42/40 ratio, Aβ38, Aβ43, sAPPα, sAPPβ were also studied and each numerical value was obtained.

sAPPα = sAPPα in FAD1 iPS cell-derived nerve cells (secondary screening); details: secondary screening, FAD1 iPS cell-derived nerve cells
Method: as §2

Aβ43 = Aβ43 in FAD1 iPS cell-derived nerve cells (secondary screening); parameters: scale not given here
Method: as §2

Aβ40 = details: secondary screening, FAD1 iPS cell-derived nerve cells, numerical value (Aβ change rate)
Text: To perform induction from iPS cells to the cerebral cortex nerve early and with high reproducibility, iPS cells introduced with human Neurogenin 2 gene (NGN2) linked to doxycycline-inducible promoter by using PiggyBac were used (FIG. 1a, FIG. 1b, FIG. 4a and FIG. 4b). IPS cells prepared from 4 patients with familial Alzheimer's disease (FAD), 2 patients with sporadic Alzheimer's disease (SAD) and 4 healthy individuals (HC) were used. The iPS cells were established by the method described in Okita K et al., Nature.
Structural formulas (those in the form of salt or halide are also described as free form) and the general names of the candidate compounds are shown in Table 1.
as §2

Aβ42 = Aβ42 in FAD1 iPS cell-derived nerve cells (primary/secondary screening, dose dependency); details: secondary screening, FAD1 iPS cell-derived nerve cells, numerical value (Aβ change rate)
Outline: as §1

Aβ38 = Aβ38 in FAD1 iPS cell-derived nerve cells (secondary screening); parameters: scale not given here
Method: as §2

Sequence: RIFAXIMIN [compound 97]
- Ratio Aβ42/40 (Aβ42/40 ratio): 0.91
- sAPPβ (sAPPβ): 0.95
- sAPPα (sAPPα): 0.91
- Aβ43 (Aβ43): 0.92
- Aβ40 (Aβ40): 0.92
- Aβ42 (Aβ42): 0.84
- Aβ38 (Aβ38): 1.09
